The test system of one data set is HT-1080. In words: MTT antiproliferative assay, 48 h, HT-1080. The format is cell-based, human. Conditions: 48-hour exposition, read-out: Cytotoxicity, IC50, μM HT-1080. Here is the method:
(§1) Anticancer activity of compounds of invention, PDI A3-inhibitors has been tested in vitro in classical antiproliferative assay in various cancer cells lines. Monolayer tumor cell lines MDA-MB-231 (human mammary breast adenocarcinoma), MCF-7 (human breast adenocarcinoma, estrogen-positive), HT-1080 (human fibrosarcoma) and Caco-2 (human colon adenocarcinoma) were cultured in standard medium DMEM (Dulbecco's modified Eagle's medium) (“Sigma”) supplemented with 10% foetal bovine serum (“Sigma”). About 2000-4000 cells per well (depending on line nature) were placed in 96-well plates and after 24 h compounds were added to the wells. Untreated cells were used as a control. The plates were incubated for 48 h, 37° C., 5% CO2. The number of surviving cells was determined using 3-(4,5-dimethylthiazol-2-yl)-2,5-diphenyltetrazolinium bromide (MTT). MTT-test: after incubating culture medium was removed and 200 μL fresh medium with 20 μL MTT (2 mg/mL in HBSS) was added in each well of the plate. After incubation (3 hr., 37° C., 5% CO2), the medium with MTT was removed and 200 μL DMSO were added at once to each sample. The samples were tested at 540 nm on Thermo Scientific Multiskan EX microplate photometer. The half-maximal inhibitory concentration (IC50) of each compound was calculated using Graph Pad Prism® 3.0.
Background: Tetrazolium assays rely on reduction of a dye to a coloured formazan, in cell work by metabolically active cells.

For another data set, the system named is MCF-7. In words: MTT antiproliferative assay, 48 h, MCF-7. The format is cell-based, human. The note with it: 48-hour exposition, read-out: Cytotoxicity, IC50, μM MCF-7. Here is the method:
as §1

In a further data set the test system is CaCo-2. The data set can be described thus: MTT antiproliferative assay, 48 h, Caco-2. Format: cell-based, human. The note with it: 48-hour exposition, read-out: Cytotoxicity, IC50, μM CaCo-2. Here is the method:
as §1

Another data set addresses T1, PDI A3 (Homo sapiens, UniProt P30101).
T1 construct: purchased Mybiosource; host or cells: E. coli
T1 sequence (P30101 25-505): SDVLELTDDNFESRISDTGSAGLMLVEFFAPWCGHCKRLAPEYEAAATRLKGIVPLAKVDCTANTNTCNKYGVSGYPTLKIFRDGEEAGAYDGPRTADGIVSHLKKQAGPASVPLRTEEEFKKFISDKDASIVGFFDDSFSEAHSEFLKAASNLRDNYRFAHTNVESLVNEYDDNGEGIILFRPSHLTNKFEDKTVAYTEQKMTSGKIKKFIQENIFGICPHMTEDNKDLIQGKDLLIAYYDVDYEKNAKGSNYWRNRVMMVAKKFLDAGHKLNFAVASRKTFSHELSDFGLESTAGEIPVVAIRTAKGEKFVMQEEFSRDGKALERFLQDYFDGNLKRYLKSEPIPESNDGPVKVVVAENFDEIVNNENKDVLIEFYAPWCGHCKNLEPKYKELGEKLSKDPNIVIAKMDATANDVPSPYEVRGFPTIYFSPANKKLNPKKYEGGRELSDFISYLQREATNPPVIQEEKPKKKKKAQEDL
The data set can be described thus: PDI A3 inhibition, insulin turbidimetric assay. Format: biochemical. The note with it: 10 ug/ml PDI A3, incubated 60 min at 37° C., turbidity at 650 nm; read-out: Inhibition of PDI A3 (EC 50). Here is the method: The inhibitory effects compounds of invention on activity of PDIA3 was assess based on the insulin turbidimetric assay. Enzymatic activity of PDIA3 was confirmed by measuring the turbidity increase at 650 nm due to insulin reduction. The assay mixture was prepared by addition 10 ug/ml PDI A3 (E. coli recombinant protein; Mybiosource), […] phosphate buffer (pH7.6), 1 mM EDTA, 0.087 mM DTT and with or without tested compound and was incubated for 60 min, at 37° C. Reaction was started by addition of insulin and DTT. Final concentration of insulin and DTT in assay mixture were 0.15 mMv and 0.174 mMv, respectively. Turbidity was detected at 650 nm against reference samples without PDJs. The measurements were performed at 650 nm using 120-s recordings.

Another data set concerns MDA-MB-231. In words: MTT antiproliferative assay, 48 h, MDA-MB-231. The format is cell-based, human. Conditions: 48-hour exposition, read-out: Cytotoxicity, IC50, μM MDA-MB-231. Here is the method: as §1

As a reminder, the IC50 is the midpoint of a concentration-inhibition curve.

For “Methyl 1-(4-propylphenyl)sulfonylaziridine-2-carboxylate [Compound C-3304]”, the IC50 worked out at 17 ± 3 µM in the data set with HT-1080, 49 ± 1 µM with MCF-7, 10 ± 1 µM in the data set with CaCo-2 and 13 ± 1 µM in the data set with MDA-MB-231. Besides, on PDI A3, the EC50 was found to be 190 µM.

(Values after patent publication US20230069886A1, “AROMATIC SULPHONAMIDES DERIVATIVES THAT INHIBITS PDI A3, THEIR SYNTHESIS AND USE” (Uniwersytet Jagiellonski, priority 2020, published 2023).)
